Measured values reported in US12616201B2, “Herbicidal compositions comprising isoxaflutole” (BASF SE, priority 2024, dated 2026).

Tests used:
[1] = system: Zea mays; experiment: Post-emergence application in field trials, ZEAMX; assay type: in vivo
Description: (§1) In the examples below, using the method of S. R. Colby (1967) “Calculating synergistic and antagonistic responses of herbicide combinations”, Weeds 15, p. 22ff., the value E, which is expected if the activity of the individual active compounds is only additive, was calculated:
(§2) [formula] • where • X=percent activity using active herbicide A at an application rate a; • Y=percent activity using active herbicide B (i.e. isoxaflutole) at an application rate b; • E=expected activity (in %) by A+B at application rates a+b.
(§3) If the value found experimentally is higher than the value E calculated according to Colby, a synergistic effect is present.
(§4) On field test sites, natural weed infestation or seeded weeds were treated post-emergence of the weeds.
(§5) In the field trials, the weeds were treated as indicated below.
(§6) In the following experiments, the herbicidal activity for the individual herbicidal compositions (solo and mixture applications) was assessed at the indicated days after treatment (DAT). The assessments for the damage on undesired weeds caused by the composition was carried out using a scale from 0 to 100%, compared to the untreated control plants. Here, 0 means no damage and 100 means complete destruction of the plants.
(§7) Herbicide A-1 and isoxaflutole (240 g/l SC) were, together with addition of 0.25 v/v % MSO (methylated sed oil) as adjuvant, formulated in water as distribution medium (water volume 200 l/ha) and sprayed with commercial flat fan nozzles.
(§8) Herbicide A-1 and isoxaflutole (240 g/l SC, Balance Flexx®) were, together with addition of 0.25 v/v % MSO (methylated sed oil) as adjuvant, formulated in water as distribution medium (water volume 200 l/ha) and sprayed with commercial flat fan nozzles.
(§9) Herbicide A-1, isoxaflutole (240 g/l SC) and saflufenacil (342 g/l) were, together with addition of 0.25 v/v % MSO (methylated sed oil) as adjuvant, formulated in water as distribution medium (water volume 200 l/ha) and sprayed with commercial flat fan nozzles.
(§10) Herbicide A-1, isoxaflutole (240 g/l SC), saflufenacil (342 g/l) and pyroxasulfone were, together with addition of 0.25 v/v % MSO (methylated sed oil) as adjuvant, formulated in water as distribution medium (water volume 200 l/ha) and sprayed with commercial flat fan nozzles.

[2] = system: Datura stramonium; experiment: Post-emergence application in field trials, DATST; assay type: in vivo; settings: Table 4.2; DATST growth stage 14-16, height 5-10 cm; 42 DAT; 12.5 g ai/ha
Description: as §1, §2, §3, §4, §5, §6, §7, §9

[3] = system: HORVW; experiment: Post-emergence application in field trials, HORVW; assay type: in vivo, Hordeum vulgare
Description: as §1, §2, §3, §4, §5, §6, §10

[4] = system: Echinochloa crus-galli; experiment: Post-emergence application in field trials, ECHCG; assay type: in vivo
Description: as §1, §2, §3, §4, §5, §6, §7, §8, §9, §10

[5] = system: Lolium multiflorum; experiment: Post-emergence application in field trials, LOLMU; assay type: in vivo
Description: as §1, §2, §3, §4, §5, §6, §10

[6] = system: Chenopodium album; experiment: Post-emergence application in field trials, CHEAL; assay type: in vivo; settings: Table 5.22; 7 DAT; height 10-25 cm; C-19 70 g ai/ha
Description: as §1, §2, §3, §4, §5
as §6, with “the plants. […]” for “the plants.”

[7] = system: Amaranthus retroflexus; experiment: Post-emergence application in field trials, AMARE; assay type: in vivo; settings: 7 DAT
Description: as §1, §2, §3, §4, §5, §6, §8, §10

[8] = Table 5.23, 21 DAT, height 20-25 cm, C-19 70 g ai/ha

Structure (SMILES): CC(C)N(C)S(=O)(=O)NC(=O)c1cc(-n2c(=O)cc(C(F)(F)F)n(C)c2=O)c(F)cc1Cl [C-1, saflufenacil]
- % herbicidal activity ([1]; Table 4.1, ZEAMX growth stage 15-16, height 25-30 cm, 7 DAT, 12.5 g ai/ha): 0%
- % herbicidal activity ([1]; Table 5.11, 7 DAT, height 25-30 cm, C-1 12.5 g ai/ha): 8%
- % herbicidal activity ([1]; Table 5.7, ZEAMX height 25-30 cm, 7 DAT, 12.5 g ai/ha): 8%
- % herbicidal activity ([1]; Table 5.8, ZEAMX height 25-30 cm, 21 DAT, 12.5 g ai/ha): 2%
- % herbicidal activity ([1]; Table 5.9, ZEAMX height 25-30 cm, 28 DAT, 12.5 g ai/ha): 0%
- % herbicidal activity [2]: 40%
- % herbicidal activity ([3]; Table 5.2, HORVW height 20-25 cm, 21 DAT, 12.5 g ai/ha): 0%
- % herbicidal activity ([3]; Table 5.3, HORVW height 20-25 cm, 28 DAT, 12.5 g ai/ha): 0%
- % herbicidal activity ([3]; Table 5.8, HORVW height 20-25 cm, 21 DAT, 12.5 g ai/ha): 0%
- % herbicidal activity ([4]; Table 4.1, ECHCG growth stage 23-30, height 15-20 cm, 7 DAT, 12.5 g ai/ha): 20%
- % herbicidal activity ([4]; Table 5.11, 7 DAT, height 15-20 cm, C-1 12.5 g ai/ha): 20%
- % herbicidal activity ([5]; Table 5.1, LOLMU height 20-25 cm, 7 DAT, 12.5 g ai/ha): 20%
- % herbicidal activity ([5]; Table 5.8, LOLMU height 20-25 cm, 21 DAT, 12.5 g ai/ha): 20%

Structure (SMILES): Cn1nc(C(F)(F)F)c(CS(=O)(=O)C2=NOC(C)(C)C2)c1OC(F)F [C-19, pyroxasulfone]
- % herbicidal activity ([1]; Table 5.10, 7 DAT, height 25-30 cm, C-19 70 g ai/ha): 5%
- % herbicidal activity ([1]; Table 5.22, 7 DAT, height 25-30 cm, C-19 70 g ai/ha): 5%
- % herbicidal activity ([1]; Table 5.23, 21 DAT, height 25-30 cm, C-19 70 g ai/ha): 4%
- % herbicidal activity ([1]; Table 5.24, 28 DAT, height 25-30 cm, C-19 70 g ai/ha): 0%
- % herbicidal activity ([1]; Table 5.4, ZEAMX height 25-30 cm, 7 DAT, 70 g ai/ha): 5%
- % herbicidal activity ([1]; Table 5.5, ZEAMX height 25-30 cm, 21 DAT, 70 g ai/ha): 4%
- % herbicidal activity ([1]; Table 5.6, ZEAMX height 25-30 cm, 28 DAT, 70 g ai/ha): 0%
- % herbicidal activity [6]: 10%
- % herbicidal activity ([3]; Table 5.2, HORVW height 20-25 cm, 21 DAT, 70 g ai/ha): 0%
- % herbicidal activity [3, 8]: 0%
- % herbicidal activity ([3]; Table 5.24, 28 DAT, height 20-25 cm, C-19 70 g ai/ha): 0%
- % herbicidal activity ([3]; Table 5.3, HORVW height 20-25 cm, 28 DAT, 70 g ai/ha): 0%
- % herbicidal activity ([3]; Table 5.5, HORVW height 20-25 cm, 21 DAT, 70 g ai/ha): 0%
- % herbicidal activity ([3]; Table 5.6, HORVW height 20-25 cm, 28 DAT, 70 g ai/ha): 0%
- % herbicidal activity ([4]; Table 5.23, 21 DAT, height 15-20 cm, C-19 70 g ai/ha): 40%
- % herbicidal activity ([4]; Table 5.24, 28 DAT, height 15-20 cm, C-19 70 g ai/ha): 30%
- % herbicidal activity ([4]; Table 5.4, ECHCG height 15-20 cm, 7 DAT, 70 g ai/ha): 20%
- % herbicidal activity ([7]; Table 5.22, height 8-20 cm, C-19 70 g ai/ha): 10%
- % herbicidal activity ([7]; Table 5.4, AMARE height 8-20 cm, 70 g ai/ha): 10%
- % herbicidal activity ([5]; Table 5.1, LOLMU height 20-25 cm, 7 DAT, 70 g ai/ha): 20%
- % herbicidal activity ([5]; Table 5.22, 7 DAT, height 20-25 cm, C-19 70 g ai/ha): 20%
- % herbicidal activity [5, 8]: 40%
- % herbicidal activity ([5]; Table 5.4, LOLMU height 20-25 cm, 7 DAT, 70 g ai/ha): 20%
